The record followed here is PubChem BioAssay AID179 (DTP/NCI, 2004).

In this test the test system is CEM cells HIV-1 protection, formazan growth assay. Nature of the test: NCI AIDS Antiviral Assay. Particulars: for IC50: measured here: growth of uninfected CEM cells. The method in brief:
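Category rules: moderately active means at least 50% protection on retest, and confirmed active means 100% protection reproducibly. The underlying data came from a formazan growth assay in HIV-1-infected CEM cells.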

The source made the active and inactive calls.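 The calls were made as follows: active = compounds giving half or more protection of infected cells from virus-caused growth loss, again on retest; inactive = the rest.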 Where a SMILES comes first, the peptide text is derived from it. A value given as a limit tells only on which side of the number the result lay.

As a reminder, the EC50 is the concentration that produces a half-maximal response. As usually defined, the IC50 is the midpoint of a concentration-inhibition curve. Read a low IC50 as inhibition by little substance.

`CCCCC[C@@H]1CC=CC(NC(=O)OCc2ccccc2)C1/C=C/C(=O)OCCCC1OCCO1` (stereo partly specified): the result was inactive.
With `CCc1c2cc(OC)c(OC)cc2cc2c3cc(OC)c(OC)cc3cc[n+]12` (tested in a mixture with another compound), the EC50 is over 234 µM and the IC50 was determined as 33.9 µM.
On to `CC(C)=CCNc1ncnc2c1ncn2CCC(=O)O`, for which the EC50 was over 200 µM and the half-inhibitory concentration (IC50) was over 200 µM.
Consider `Cc1[nH]nc2c1NC(=O)OCC2`, for which the EC50 is over 550 µM and the half-inhibitory concentration (IC50) is over 550 µM.
On to `COc1ccc(/C=C\c2cc(OC)c(OC)c(OC)c2)cc1OC(=O)CC(N)C(=O)O` (stereo unspecified), for which the EC50 was over 0.2 µM and the concentration for half-maximal inhibition (IC50) worked out at 0.000309 µM.
As for `COc1ccc(-c2nc3c(=O)n(C)c(=O)n(C)c3nc2-c2ccc(OC)cc2)cc1`, the EC50 is over 200 µM and the IC50 was 195 µM.
Taken in the same sequence, the figures for `COc1ccc(C2(c3ccc(OC)cc3)N=NC3(C)CC32)cc1` (stereo unspecified) were over 91.2 µM and 89.1 µM.
`N=c1oc2cc(O)ccc2cc1C(=O)NCc1ccccc1`: the EC50 was over 200 µM and the half-inhibitory concentration (IC50) was 20 µM.
Regarding `COc1ccc(OC)c(NC(=O)CCC/C(CC(=O)c2ccc(O)c(OC)c2)=N\NC(=O)C[N+](C)(C)C)c1`, the EC50 is over 6.61 µM and the IC50 was over 6.61 µM.
Take `COc1ccccc1NC(=O)C1=C(C)NC(C)=C(C(=O)Nc2ccccc2OC)C1c1ccccc1OC`: the EC50 was over 19.5 µM and the IC50 is over 19.5 µM.
Take `O=C(NCCCl)N(O)C(=O)Nc1ccccc1`: the EC50 is over 200 µM and the IC50 was determined as 126 µM.
With `CCOC(=O)c1ccc(NC(=O)Nc2cc(C)ccn2)cc1`, the EC50 was over 200 µM and the half-maximal inhibitory concentration (IC50) is over 200 µM.
For `N#C/C(=C\NC(=S)Nc1ccc(S(=O)(=O)Nc2nccs2)cc1)C(=O)c1ccc2ccccc2c1`, the EC50 was over 200 µM and the IC50 was 36.3 µM.
`CS(=O)(=O)OCCN(CCOS(C)(=O)=O)c1ccc(C=Nc2ccc3oc(=O)ccc3c2)cc1`: the EC50 was over 135 µM and the concentration for half-maximal inhibition (IC50) was found to be 1.02 µM.
As to `COC(=O)c1nc(NC#N)[nH]c(=O)c1C`, the EC50 was over 34.7 µM and the IC50 is over 34.7 µM.
In the case of `O=C(NC12CC3CCC1CC(C3)C2)[C@@H]1CCCN1C(=O)OCc1ccccc1` (stereo partly specified), the outcome was inactive.
Regarding `COc1cc2c(cc1OC)C(=O)N1CSCC1C(=O)S2` (stereo unspecified), the EC50 is over 50.1 µM and the half-inhibitory concentration (IC50) was over 50.1 µM.
On to `CCOC(=O)/C(Br)=C/SCCC(=O)O`, for which the EC50 was over 891 µM and the IC50 was found to be 174 µM.
On to `C/C(=N\O)[C@H]1CC[C@H]2[C@@H]3CC[C@@H]4C/C(=N/O)CC[C@]4(C)[C@H]3[C@@](C)(O)C[C@]12C`, for which the EC50 is over 200 µM and the IC50 stood at 26.9 µM.
Taken in the same sequence, the figures for `C/C(CC1C2CCCC1C2)=N\NC(N)=O` (stereo unspecified) were over 100 µM and over 100 µM.
On the same counts, the results for `O=C(CCC(=O)C1Cc2ccccc2C1=O)Nc1cccc(C(F)(F)F)c1` (stereo unspecified) are over 661 µM and over 661 µM.
`COc1c(C)c2nc3ccccc3[nH]c2c2c(=O)ccnc12`: the EC50 is over 100 µM and the half-maximal inhibitory concentration (IC50) was over 100 µM.
For the compound `Cc1ccc(C2=NO[C@@H]3C(=O)N(c4ccc(Cc5ccc(N6C(=O)[C@H]7C(c8ccc(C)cc8)=NO[C@H]7C6=O)cc5)cc4)C(=O)[C@H]23)cc1`, the EC50 was over 11.5 µM and the IC50 was over 11.5 µM.
For `C[C@]12CC[C@H]3[C@@H](CC=C4C[C@@H](O)CC[C@@]43C)[C@@H]1CC[C@@H]2c1cnc[nH]1`, the EC50 is over 200 µM and the concentration for half-maximal inhibition (IC50) came out at 117 µM.
Regarding `NCC#CCNCCCN1CC1`, the EC50 was over 200 µM and the IC50 is over 200 µM.
For the compound `CCOC(=O)C(=Cc1cc(OC)ccc1OC)C(=O)OCC`, the EC50 is over 117 µM and the IC50 was 18.2 µM.
In the case of `C=CC[C@H](C)CCC(=O)N1[C@H]2CC3CC[C@@]2(CS1(=O)=O)C3(C)C`, the EC50 was over 200 µM and the IC50 was 75.9 µM.
As to `COc1ccc(CCCNC(=O)Cc2ccccc2CO)cc1OC`, the EC50 is over 200 µM and the half-inhibitory concentration (IC50) is over 200 µM.
On to `CC1(C)CNC[C@](C)(OCc2ccccc2)C(=O)[N-]C(C)(C)CNC[C@@](C)(OCc2ccccc2)C(=O)[N-]1.[Ni+2]`, for which the EC50 was over 200 µM and the IC50 is 151 µM.
For `CCCOC(C(=O)OC1CCC2CCC1N2C)(c1ccccc1)c1ccccc1` (stereo unspecified), the EC50 was over 200 µM and the IC50 was 28.8 µM.
On to `O=Nc1ccc(Cl)cc1`, for which the outcome was inactive.
Regarding `CCc1cccc(C)c1NS(=O)(=O)c1ccccc1`, the outcome was inactive.
Still for that read-out and setting: the entry for `CCC1CC2CN3CCc4c([nH]c5ccc(OC)cc45)C(COC(=O)c4ccc(OC)c(OC)c4)(C2)C13` (stereo unspecified) is “inactive”.
For `CCOC(=O)C1=CN(Cc2ccccc2)C2ON=C(c3ccc(Cl)cc3)C2C1` (stereo unspecified), the EC50 is over 200 µM and the half-inhibitory concentration (IC50) turned out to be 31.6 µM.
As to `O=c1cc(P(=O)(O)O)[nH]c(=O)[nH]1`, the result was inactive.
Take `CCC1C(=O)OCc2c1cc1n(c2=O)CCC12OCCO2` (stereo unspecified): the EC50 was over 851 µM and the IC50 was over 851 µM.
In the case of `CC1(C)CC(=O)C(C=NC(=S)c2ccccc2)=C(O)C1`, the EC50 is over 200 µM and the IC50 is over 200 µM.
As for `COc1ccc(CCc2ccccc2CC(=O)O)cc1`, the EC50 was over 933 µM and the IC50 amounted to 589 µM.
For `COc1ccc2c(c1)[n+](=O)c(C(=O)C/C(=N/OCCCc1ccccc1)C(=O)NC13CC4CC(CC(C4)C1)C3)c(C)n2[O-]`, the EC50 was over 39.8 µM and the IC50 is over 39.8 µM.
As to `CC12CCC3c4cc(Br)c(O)c(Br)c4CCC3C1CCC2O` (stereo unspecified), the EC50 was over 200 µM and the IC50 turned out to be 6.76 µM.
Take `C/C(=N\NC(N)=S)c1ccc2c(c1)OCO2`: the result was inactive.
Consider `Cc1n(CC(C)C)c2c([n+]1CC(=O)c1ccc([N+](=O)[O-])cc1)C(=O)c1ccccc1C2=O`, for which the EC50 is over 4.9 µM and the IC50 was found to be 0.0288 µM.
With `O=C(CCCN1CCN(c2ccccn2)CC1)c1ccc(F)cc1`, the EC50 is over 132 µM and the 50% inhibitory concentration (IC50) is 72.4 µM.
On to `O=[N+]([O-])C(C(Cl)=C(Cl)Cl)=C(N1CCCCC1)N1CCCCC1`, for which the EC50 was over 200 µM and the IC50 was determined as 186 µM.
Turning to `O=[N+]([O-])c1cc(C(F)(F)F)cc2c1SC1=Nc3ccccc3CN12`, the outcome was inactive.
As for `CCOC(=O)Cc1csc2[n+]1C(=O)/C(=C/c1ccc(OC)c(OC)c1)S2`, the EC50 was over 200 µM and the IC50 came out at 20 µM.
On the same counts, the results for `O=C1CCC2CCC1C2` (stereo unspecified) are over 200 µM and over 200 µM.
Take `CC(=O)c1ccc(NC(=O)C(=O)C(C#N)CC(C)(C)C=O)cc1` (stereo unspecified): the EC50 was over 83.2 µM and the IC50 was over 83.2 µM.
For `O=C1c2ccccc2C2(c3ccc(Cl)cc3)NCc3ccccc3CN12` (stereo unspecified), the EC50 is over 200 µM and the 50% inhibitory concentration (IC50) was found to be 12.9 µM.
In the case of `COc1cc(N)ccc1Nc1c2ccccc2nc2ccccc12`, the EC50 was over 200 µM and the IC50 came to 1.02 µM.
Turning to `CN(C)c1nc(N(C)C)n2nc(-c3ccccc3[N+](=O)[O-])nc2n1`, the EC50 was over 21.9 µM and the IC50 worked out at 0.00708 µM.
On the same counts, the results for `CN1C/C(=C\c2cccs2)c2[nH]c(=O)c(C#N)c(-c3cccs3)c2C1` are over 200 µM and over 200 µM.
For the compound `CC1CCC(C(C)C)/C(=N/NC(=O)CC#N)C1` (stereo unspecified), the EC50 was over 200 µM and the IC50 was over 200 µM.
With `CN(C)C(=S)/N=c1\sn(C)/c(=N\C(=S)N(C)C)n1C`, the outcome was inactive.
`O=[N+]([O-])c1cc2ccc(O)cc2c2ccccc12`: the EC50 is 51.3 µM and the IC50 was determined as 61.7 µM.
With `Cc1nc(C2CCC3C4CCC5=CC(=O)CCC5(C)C4CCC23C)co1` (stereo unspecified), the result was inactive.
For the compound `CC1(C)N/C(=C\C=O)C(C)(C)N1O`, the EC50 is over 200 µM and the half-maximal inhibitory concentration (IC50) was over 200 µM.
Take `CC1=CC(=O)N2CCN=C2S1`: the EC50 is over 200 µM and the half-maximal inhibitory concentration (IC50) is over 200 µM.
Take `CC(NC1=NCCO1)c1cccs1` (stereo unspecified): the EC50 was over 200 µM and the IC50 was determined as 138 µM.
Turning to `COCCCNC1=C(C#N)C(=O)NC(c2cccc([N+](=O)[O-])c2)S1` (stereo unspecified), the EC50 is over 269 µM and the concentration for half-maximal inhibition (IC50) was found to be 39.8 µM.
As for `O=C1Oc2cc3c(c4cccc1c24)OCN(c1ccc(Cl)cc1)C3`, the EC50 is over 8.13 µM and the IC50 was over 8.13 µM.
As to `COC(=O)C1C2CCCN2OC1(C)CO` (stereo unspecified), the EC50 is over 200 µM and the IC50 was over 200 µM.
For the compound `CCCCCCCCNC(=O)/C(=C\c1ccc2c(c1)OCO2)NC(=O)c1ccccc1`, the EC50 was over 58.9 µM and the half-inhibitory concentration (IC50) came out at 45.7 µM.
With `CCN(CC)CCN1CCNc2c3cc(OC)ccc3nc3c([N+](=O)[O-])ccc1c23`, the EC50 was over 100 µM and the IC50 came to 1.58 µM.
With `COc1cc2cnc3c4ccccc4ccc3c2cc1OC`, the EC50 is over 64.6 µM and the 50% inhibitory concentration (IC50) was over 64.6 µM.
In the case of `O=C(OC1CC(OC(=O)c2cc(O)c(O)c(O)c2)(C(=O)O)C[C@H](OC(=O)c2cc(O)c(O)c(O)c2)C1OC(=O)c1cc(O)c(O)c(O)c1)c1cc(O)c(O)c(O)c1` (stereo partly specified), the result was inactive.
Regarding `CCOC(=O)C1=NNC(C(=O)c2ccccc2)C1c1ccccc1` (stereo unspecified), the EC50 is over 200 µM and the concentration for half-maximal inhibition (IC50) was 2.19 µM.
Turning to `CC(C)CC(=O)N1CCN(C(=O)CC(C)C)c2ccccc21`, the EC50 is over 603 µM and the IC50 turned out to be 589 µM.
Regarding `COc1c(-c2ccc3c(c2)OCO3)oc2cc(O)cc(O)c2c1=O`, the EC50 is over 200 µM and the half-maximal inhibitory concentration (IC50) came to 115 µM.
Taken in the same sequence, the figures for `c1ccc2cc(CNCCCCNCCCNCc3ccc4ccccc4c3)ccc2c1` were over 200 µM and 0.257 µM.
Regarding `CC(C)CC(N)C(=O)NC(Cc1cnc[nH]1)C(=O)NC(CC(N)=O)C(=O)NC(C(=O)NC(CO)C(=O)NC(Cc1ccc(O)cc1)C(=O)NC(CO)C(=O)NC(C)C(=O)NC(CCCCN)C(=O)NC(CC(=O)O)C(=O)NC(CC(C)C)C(=O)O)C(C)O` (stereo unspecified) (H-LHNTSYSAKDL-OH; configuration not given here), the EC50 is over 50.1 µM and the half-inhibitory concentration (IC50) is over 50.1 µM.
